The term melting point denotes the temperature of the solid-liquid transition.

Each structure is given as a SMILES string.

`O=C(N[C@H]1CC[C@H](CCN2CCC(c3cccc4c3CCO4)CC2)CC1)c1ccc2c(c1)OCO2` showed a melting point of 233 °C.

Compound `O=[N+]([O-])c1cc(C(O)CCN2CC=C(c3ccc(Cl)cc3)CC2)ccc1F` (stereo not drawn) returned a melting point of 154 to 156 °C.

In turn, `CC(C)(C)OC(=O)c1nn(-c2ccc(Cl)cc2Cl)c(-c2ccc(Cl)cc2)c1CBr` had a melting point of 139 °C.

For the compound `CC#CCOc1cc(-c2ccc(F)cc2F)ncn1`, the melting point was determined as 63.9 °C.

Compound `Cc1oc(-c2ccccc2)nc1CCOc1ccc(CC(Nc2ccccc2C(=O)c2cccc(CO)c2)C(=O)O)cc1` (stereo not drawn) had a melting point of 87 to 90 °C.

Turning to `CC(=O)c1cc(OCc2ccccc2)cc(NC(=O)C(C)(C)Br)c1O`, the melting point lay in the range of 88 to 90 °C.

`O=C(N[C@H]1CCN(C(=O)c2cc(C(F)(F)F)cc(C(F)(F)F)c2)[C@H](Cc2ccc(Cl)cc2)C1)c1cc(=O)c2ccccc2o1` showed a melting point of 169 to 170 °C.

As to `COc1ccc2oc(-c3nc4c(s3)NCCCC4C(C)=O)cc2c1` (stereo not drawn), the melting point is 147 to 149 °C.

Turning to `COc1cc(NC(=O)Nc2ccc(C3=CCN(C(=O)Nc4ccc(OCC(O)CO)cc4Cl)CC3)cc2)cc(OC)c1` (stereo not drawn), the melting point lay in the range of 108 to 111 °C.

For `CCCCc1oc2ccc(NS(C)(=O)=O)cc2c1C(O)c1ccc(OCCCN(CCCC)CCCC)cc1` (stereo not drawn), the melting point was found to be 94 °C.

The compound `COC(=O)C(C)=C1CCC2C3CCC4=CC(=O)CCC4(C)C3CCC12C` (stereo not drawn) yielded a melting point of 149 to 151 °C.

Turning to `CN(Cc1ccc(-c2ccc(OCC#N)c(Br)c2)cc1)C(=O)c1cn(C)c2ccccc12`, the melting point lay in the range of 202 to 206 °C.

Consider `NC(=O)c1csc2ccc([N+](=O)[O-])cc12`, for which the melting point lay in the range of 243 to 250 °C.

In turn, `CC(C)(C)OC(=O)N1CCN(c2ccc(NC(=O)Nc3cc(Cl)ccc3NS(C)(=O)=O)cc2)CC1` had a melting point of 127 °C.

Consider `COC(=O)c1cccc(NC(=S)Nc2cc(C(=O)Nc3ccccc3)ccc2OC)c1`, for which the melting point lay in the range of 178 to 180 °C.

With `O=C(CBr)Nc1ccc(Cl)cc1C(=O)c1ccc(O)cc1`, the melting point is 201 to 203 °C.

For the compound `NC(=O)c1c(F)ccc(OCC=CC(=O)O)c1F`, the melting point was in the range of 187 to 188 °C.

Compound `CCOC(=O)CC1CCN(C(=O)c2ccccc2)CC1` came in with a melting point of 47 to 48 °C.

As for `COC(=O)c1ccc(SC)c(N)c1`, the melting point is 63 to 65 °C.

In turn, `Cc1cc(-c2ccc3c(c2)c2cc(-c4ccc(Cl)cc4Cl)c(=O)n(C)c2n3C)[nH]n1` returned a melting point of 309 to 310 °C.

The compound `COC=C(C(=O)OC)c1ccccc1` returned a melting point of 37 to 38 °C.

Take `O=c1c2ccccc2n(CCCCCl)c2ccc(Cl)cc12`: the melting point fell in the range of 101 to 106 °C.

In the case of `N#Cc1ccc(Oc2ccc(CBr)cc2)cc1C#N`, the melting point was in the range of 101 to 102 °C.

The compound `CCCc1nnc(C(Cc2ccc(-c3cccc(CN(C)C(=O)c4ccccc4)c3)cc2)Nc2ccccc2C(=O)c2ccccc2)o1` (stereo not drawn) yielded a melting point of 65 °C.

Take `CC1(C)CC=Nc2nc(N)c3ccccc3c21`: the melting point was in the range of 253 to 260 °C.

Compound `Oc1ccc2c(c1)CCC(CCN1CCCCC1)C2` (stereo not drawn) came in with a melting point of 154 to 157 °C.

`CC(C)C(=O)N(O)C(c1ccccc1)c1cc(C(C)(C)C)c(O)c(C(C)(C)C)c1` (stereo not drawn): the melting point was in the range of 179 to 180 °C.

In turn, `CC(C)OC1COc2ccc(OCc3ccc4ccccc4n3)cc2C1=O` (stereo not drawn) registered a melting point of 85 °C.

As for `O=C(O)c1cn(-c2ccc(F)cc2F)c2c(F)c(F)c(F)c(F)c2c1=O`, the melting point was 250 to 252 °C.

Regarding `C1=Nc2ccccc2OC1`, the melting point was in the range of 126 to 129 °C.

As for `COC(=O)C1Oc2cc(Cl)ccc2C(C)(c2ccccc2)O1` (stereo not drawn), the melting point was 144 °C.

For the compound `CN(S(C)(=O)=O)S(=O)(=O)N=C=O`, the melting point is 140 °C.

Consider `CCOC(=O)C1=C(NC(=O)Nc2cc(OC(C)C)c(Cl)cc2F)CCC1`, for which the melting point lay within 166 to 169 °C.

`COC(=O)CCc1cc(C(=O)c2ccccc2Cl)c(N)s1`: the melting point fell in the range of 89 to 90 °C.

Regarding `N#CCc1cccc2c(-c3ccccc3)onc12`, the melting point was 125 to 138 °C.

On to `CCOC(=O)c1ccc(N2CCC(NC[C@H](O)COc3ccc(O)c(S(C)(=O)=O)c3)CC2)cc1`, for which the melting point was 83 to 85 °C.

`CC(=O)NCC(=O)N(C)c1ccc(Cl)c(COc2cccn3c(Br)c(C)nc23)c1Cl`: the melting point lay in the range of 187 to 189 °C.

`O=C(O)C1Cc2cc(-c3ccc(Cl)cc3)ccc2O1` (stereo not drawn) gave a melting point of 94 to 96 °C.

For `CC(C)n1nc(OCc2ccccc2)cc1CO`, the melting point lay within 81 to 82 °C.

The compound `Oc1ccc2c(c1)CCCC(c1ccccc1)=C2c1ccc(OCCCCCI)cc1` had a melting point of 192 to 193 °C.

In turn, `Cc1c(-c2ccccc2)oc2cc(OCC3CO3)ccc2c1=O` (stereo not drawn) yielded a melting point of 231 to 235 °C.

The compound `Cn1cc(C2CCC(=O)CC2)c2cc(C#N)ccc21` came in with a melting point of 150 to 152 °C.

On to `CCOC(=O)c1c(-c2ccc(F)cc2)c2ccsc2c(=O)n1C`, for which the melting point was in the range of 145 to 147 °C.

Compound `c1ccc(C(Nn2cncn2)c2ccccc2)cc1` gave a melting point of 142 to 145 °C.

Regarding `Cc1c(C(=O)Nc2ccc(N3CCN(C4CCOCC4)CC3)c(C#N)c2)cnn1-c1cccc(Cl)c1`, the melting point was 230 °C.

`Clc1ccccc1C1=NCc2nnc(Cc3ccccc3)n2-c2sc3c(c21)CCNC3`: the melting point is 192 °C.

`CC(=O)OC[C@H]1OC(O)(Cl)[C@H](NC(=O)c2cccnc2)[C@@H](OC(C)=O)[C@@H]1OC(C)=O` (stereo partly drawn) came in with a melting point of 175 to 176 °C.

For `Cc1c(C(=O)Nc2ccc(N3CCC(N4CCOCC4)CC3)cc2C#N)cnn1-c1ccc(Cl)cc1`, the melting point lay in the range of 212 to 213 °C.

In turn, `N#Cc1cnc2cc(-c3csc(CN4CCOCC4)c3)ccc2c1Nc1ccc(Cc2ccccc2)cc1` displayed a melting point of 228 to 230 °C.

Consider `COc1cc(OC)cc(-c2ncoc2-c2ccc(OC)c(N)c2O)c1`, for which the melting point is 152 to 154 °C.

In the case of `COC(=O)Cn1nnc(NC(=O)C(c2ccccc2)c2ccccc2)n1`, the melting point was in the range of 168 to 169 °C.

`CC1(C)Oc2ccc(C#N)cc2C(n2ccc(O)cc2=O)C1O` (stereo not drawn) registered a melting point of 248 to 250 °C.

`CCOC(=O)CCCn1c(Nc2cnc(N3CCCC3)cc2C)nc2c(Cl)ccc(C(CC)CC)c21`: the melting point was 195 to 196 °C.

Turning to `COC(=O)CC1(OCc2ccccc2)C=CC=C(c2ccccc2)C1` (stereo not drawn), the melting point lay in the range of 50 to 52 °C.

As for `CCn1nc(-c2ccc(OC)cc2)c(-c2ccc(OC)c(F)c2)cc1=O`, the melting point was found to be 162 °C.

As to `C[C@H]1C=CC2=C[C@@H](O)C[C@H](O)[C@@H]2[C@H]1CC[C@@H]1C[C@@H](O)CC(=O)O1`, the melting point was 161 to 163 °C.

In turn, `Cn1ncc([N+](=O)[O-])c1CBr` came in with a melting point of 71 to 73 °C.

For `COC=C(C(=O)OC)N(C)c1nccc(-c2ccccc2)n1`, the melting point was in the range of 123 to 125 °C.

Take `CCOC(=O)c1c(N)cc([N+](=O)[O-])cc1CC`: the melting point lay in the range of 68 to 70 °C.

`CCCCc1oc2ccccc2c1C(=O)NCc1ccc2c(-c3ccccc3)c(OCc3nnn[nH]3)ccc2c1` gave a melting point of 192 to 196 °C.

`CCOC(=O)c1cc(=O)cc(-c2ccccc2OC)o1` came in with a melting point of 78 to 81 °C.

On to `CN1CCN(c2cccc(-c3cnn4c(N)c(-c5cccc(Br)c5)cnc34)c2)CC1`, for which the melting point is 195 to 197 °C.

Regarding `CCCCCCCCC=CCCCCCCCC(=O)CCCNC(=O)CCNC(C)=O`, the melting point was in the range of 123 to 125 °C.

Consider `N=C(N)Nc1nc(CSCCC(=O)NS(N)(=O)=O)cs1`, for which the melting point was determined as 160 °C.

In the case of `CC(C)CCCC(C)NC(=O)CCC(O)c1ccccc1` (stereo not drawn), the melting point lay within 72 to 89 °C.

`CC(C)(C)OC(=O)NCc1cc(N)ccc1Cl` came in with a melting point of 75 to 77 °C.

In turn, `O=[N+]([O-])c1ccc(OCCN2CCN(c3nsc4ccccc34)CC2)cc1` came in with a melting point of 115 °C.

Take `Cc1[nH]c(=O)[nH]c(=O)c1N1CCN(Cc2ccccc2)CC1`: the melting point was 263 °C.

Compound `CCOCc1nc2c(N)nc(C)cc2n1CCOCc1ccccc1` displayed a melting point of 127 to 128 °C.

The compound `CC(=O)OC1CSC(Oc2cccnc2N=CN(C)C)C(OC(C)=O)C1OC(C)=O` (stereo not drawn) came in with a melting point of 120 °C.

Take `CCOCCC(Cc1ccc(NC(=O)NC(=O)c2ccc(C(N)=S)cc2)cc1)C(=O)OC(C)(C)C` (stereo not drawn): the melting point was in the range of 199 to 201 °C.

As for `NS(=O)(=O)c1cccc(-c2cn(-c3nc(-c4ccc(Cl)c(Cl)c4)cc(C(F)(F)F)n3)cn2)c1`, the melting point was 239 °C.

In turn, `CN(C)CCC(Oc1ccc(C(F)(F)F)cc1)c1ccccc1` (stereo not drawn) registered a melting point of 117 to 119 °C.

The compound `CCCC12CCC3C4=C(CCC3C1CCC2O)CC(OC)=CC4` (stereo not drawn) had a melting point of 153 to 156 °C.

In turn, `COC(=O)c1cc2c(nc1C(=O)OC)SCC2` registered a melting point of 102 to 104 °C.

`CCOCc1nc2c(N)nc3ccccc3c2n1CCCC1(O)CCCCC1` came in with a melting point of 175 to 176 °C.

For the compound `CCOC(=O)c1ccc(NC(=O)CCc2ccc(C)cc2)cc1`, the melting point lay in the range of 154 to 155 °C.

Take `FC(F)(F)c1cccc(-c2snnc2S)c1`: the melting point was above 200 °C.

With `CCOC(=O)c1c(C(C)(C)O)nc(SC)n1Cc1ccc(-c2ccccc2-c2nnn[nH]2)cc1`, the melting point was in the range of 125 to 127 °C.

For `O=C1N(Cc2ccc(C(F)(F)F)o2)c2cccc(Br)c2C12COc1cc3c(cc12)CCO3` (stereo not drawn), the melting point lay within 165 to 167 °C.

Regarding `COC1CC(n2cc(C=CBr)c(=O)[nH]c2=O)OC1CF` (stereo not drawn), the melting point is 177 °C.

`CC(C)(C)c1ccc(C(=O)Nc2cn3cc(-n4cccc4)ccc3n2)cc1` yielded a melting point of 274 to 275 °C.

In the case of `O=C1OCCC1N1CCCC1=O` (stereo not drawn), the melting point was in the range of 80 to 81 °C.

Turning to `C=CCC12CCC(=O)C1(C)CCC1c3ccc(OC)cc3CCC12` (stereo not drawn), the melting point fell in the range of 75 to 77 °C.

Turning to `CCc1ccc(Nc2c(F)c(F)cc(F)c2F)c(CC(=O)OC(C)(C)C(=O)O)c1`, the melting point was in the range of 104 to 108 °C.

In the case of `C[C@]1(CN2CCC(NCCc3ccc(C(F)(F)F)cc3)CC2)Cn2cc([N+](=O)[O-])nc2O1`, the melting point was in the range of 80.7 to 84.2 °C.

Regarding `CCCc1c(OCCCOc2ccc(C#N)cc2Cl)ccc(C(C)=O)c1O`, the melting point was in the range of 96 to 97 °C.

In turn, `COC(=O)CCSc1nc(C(N)=O)cs1` gave a melting point of 151 to 152 °C.

(Values after a melting point compilation (Tetko et al.; mined from patent text by program, amines drawn as free bases though some values may be those of a salt).)
